Reference: the NIST ThermoML archive (doi:10.1021/je400246s)
± gives the expanded uncertainty stated by the source.

Experiments:
[1] = Molar enthalpy of transition or fusion; conditions: Crystal; DSC
[2] = Crystal; DTA

Molar enthalpy of transition or fusion [1]	Normal melting temperature [2]	SMILES
6.99 ± 0.454 kcal/mol	162.1 ± 1.1 °C	O=C1c2ccccc2C(=O)c2c(Cl)cccc21 [1-chloroanthraquinone]
8.49 ± 0.526 kcal/mol	233.2 ± 1.1 °C	O=C(O)c1cccc(Cl)c1C(=O)c1ccccc1 [2-benzoyl-3-chlorobenzoic acid]
